Converted amounts (≈) assume the structure as drawn.
Key:
[1] = tested on: HCMV recombinant mutant virus (RV145); assay: microbe, parasite or virus in culture; assay type: cell-based, human cytomegalovirus; details: for IC50: Human betaherpesvirus 5, read-out: IC50 ug/ml HCMV, HCMV
Procedure, shortened: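 Human foreskin fibroblasts infected with HCMV RV145 carrying a viral-promoter-driven beta-glucuronidase gene, in presence of compound. At 96 h post-infection, lysates assayed for beta-glucuronidase with colorimetric or fluorogenic glucuronide substrate as replication read-out. IC50 estimated from varying inhibitor amounts.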

HSV-1 = assay: HSV Antiviral (ELISA) Assay in Vero cells; assay type: cell-based, herpes simplex virus type 1; details: HSV-1, Vero cells; for IC50: Human alphaherpesvirus 1, read-out: IC50 (ug/ml) HSV
Procedure, shortened: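 Viral replication was quantified by cell-fixed ELISA for HSV glycoprotein D, using a β-galactosidase reporter and fluorogenic umbelliferyl substrate, about 24 h after HSV-1 infection (MOI 0.006) of Vero cells. Compounds, at several concentrations, were added 30 min pre-infection. IC50 was derived from fluorescence relative to the compound-free signal.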

VZV strain Ellen = assay: VZV Antiviral (ELISA) Assay in human foreskin fibroblast cells; assay type: cell-based, varicella-zoster virus; details: for inhibition at 10 µg/mL / IC50: Human alphaherpesvirus 3, Fibroblast; for inhibition at 10 µg/mL: read-out: % inhibition 10 ug/ml VZV, 10 ug/ml; for IC50: read-out: IC50 (ug/ml) VZV
Procedure, shortened: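 Antiviral IC50 is derived by comparing fluorescence with and without compound after a three-day culture of VZV-infected plus uninfected foreskin fibroblasts. Replication is quantified by ELISA against glycoprotein II, using a β-galactosidase secondary and methyl umbelliferyl-β-D-galactoside.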

Structure (SMILES)	IC50 ug/ml HCMV [1]	IC50 (ug/ml) HSV (HSV-1)	IC50 (ug/ml) VZV (VZV strain Ellen)	% inhibition 10 ug/ml VZV (VZV strain Ellen)	IC50 [1]	IC50 (HSV-1)	inhibition at 10 µg/mL (VZV strain Ellen)	IC50 (VZV strain Ellen)
Nc1ccc(Cl)cc1NC(=S)Nc1ccc(NC(=O)c2ccccc2F)cc1 [Example 437]	>10 µg/mL	0.05 µg/mL (≈ 0.121 µM)	8 µg/mL (≈ 19.3 µM)	0%	–	–	–	–
O=C(Nc1ccc(NC(=S)NCCc2cccc(Cl)c2)cc1)c1ccccc1F [Example 563]	>0.5 µg/mL	>10 µg/mL	9 µg/mL (≈ 21 µM)	–	–	–	–	–
O=C(Nc1ccc(NC(=S)Nc2cccc(C(F)(F)F)c2)cc1)c1ccccc1F [Example 433]	>10 µg/mL	>10 µg/mL	>10 µg/mL	0%	–	–	–	–
CC(NC(=S)Nc1ccc(NC(=O)c2ccccc2F)cc1)c1cc2ccccc2o1 (stereo not drawn) [Example 1002, N-{4-[3-(1-Benzofuran-2-yl-ethyl)-thioureid]-phenyl}-2-fluoro-benzamide]	2.1 µg/mL (≈ 4.84 µM)	>10 µg/mL	0.08 µg/mL (≈ 0.185 µM)	–	–	–	–	–
Cc1ccc(NC(=S)Nc2ccc(NC(=O)c3c(F)cccc3F)cc2)cc1Cl [Example 235]	>10 µg/mL	0.2 µg/mL (≈ 0.463 µM)	>10 µg/mL	50%	–	–	–	–
O=C(O)c1cccc(NC(=S)Nc2ccc(NC(=O)c3ccco3)cc2)c1 [Example 964, 3-(3-{4-[(Furan-2-carbonyl)-amino]-phenyl}-thioureido)-benzoic acid]	–	–	–	–	> 10 µg/mL	> 10 µg/mL	0%	> 10 µg/mL
O=C(Nc1ccc(NC(=S)Nc2cccc(F)c2)cc1)c1ccccc1F [Example 962, 2-Fluoro-N-{4-[3-(3-fluoro-phenyl)-thioureido]-phenyl}-benzamide]	–	–	–	–	> 10 µg/mL	> 10 µg/mL	10%	> 10 µg/mL
Cc1ccccc1C(=O)Nc1ccc(NC(=S)Nc2ccc(N(C)C3CCCCC3)c(Cl)c2)cc1 [Example 247]	>10 µg/mL	>10 µg/mL	5 µg/mL (≈ 9.86 µM)	74%	–	–	–	–
O=C(Nc1ccc(NC(=S)NCc2ccc3c(c2)OCO3)cc1)c1ccccc1F [Example 540]	>0.5 µg/mL	>10 µg/mL	>10 µg/mL	–	–	–	–	–
COc1cc(OC)c(NC(=S)Nc2ccc(NC(=O)c3cccc(OC(C)=O)c3)cc2)cc1Cl [Example 253]	8 µg/mL (≈ 16 µM)	1.2 µg/mL (≈ 2.4 µM)	6 µg/mL (≈ 12 µM)	100%	–	–	–	–
COc1cccc(C(C)NC(=S)Nc2ccc(NC(=O)c3ccccc3F)cc2)c1 (stereo not drawn) [Example 789]	>2.2 µg/mL	>10 µg/mL	1.5 µg/mL (≈ 3.54 µM)	–	–	–	–	–
COc1cc(OC)c(NC(=S)Nc2ccc(NC(=O)c3ccccc3C)cc2)cc1Cl [Example 114]	5 µg/mL (≈ 11 µM)	0.3 µg/mL (≈ 0.658 µM)	>10 µg/mL	17%	–	–	–	–
COc1ccccc1C(=O)Nc1ccc(NC(=S)NC(C)c2ccc(C#N)cc2)cc1 (stereo not drawn) [Example 1017, N-(4-{3-[1-(4-Cyano-phenyl)-ethyl]-thioureido}-phenyl)-2-methoxy-benzamide]	–	–	–	–	> 10 µg/mL	> 10 µg/mL	–	0.3 µg/mL (≈ 0.697 µM)
O=C(Nc1ccc(NC(=S)Nc2ccc3[nH]nnc3c2)cc1)c1c(F)cccc1F [Example 527]	>10 µg/mL	>10 µg/mL	>10 µg/mL	20%	–	–	–	–
CC(NC(=S)Nc1ccc(NC(=O)c2ccccc2Br)cc1)c1ccc(F)cc1 (stereo not drawn) [Example 795]	4.1 µg/mL (≈ 8.68 µM)	8.6 µg/mL (≈ 18.2 µM)	>7.5 µg/mL	–	–	–	–	–
COc1cc(OC)c(NC(=S)Nc2ccc(NC(=O)c3cccc(C(=O)O)c3)cc2)cc1Cl [Example 209]	>50 µg/mL	>50 µg/mL	>10 µg/mL	22%	–	–	–	–
CC(NC(=S)Nc1ccc(NC(=O)c2ccccc2F)cc1)c1ccc(Cl)cc1 (stereo not drawn) [Example 781]	1.8 µg/mL (≈ 4.21 µM)	>10 µg/mL	0.6 µg/mL (≈ 1.4 µM)	–	–	–	–	–
CC(NC(=S)Nc1ccc(NC(=O)c2ccc(Cl)cc2)cc1)c1ccc(F)cc1 (stereo not drawn) [Example 756]	>10 µg/mL	>10 µg/mL	0.3 µg/mL (≈ 0.701 µM)	–	–	–	–	–
Cc1ccccc1C(=O)Nc1ccc(NC(=S)Nc2ccc(N(C)C3CCN(C)CC3)c(Cl)c2)cc1 [Example 375]	1.5 µg/mL (≈ 2.87 µM)	5 µg/mL (≈ 9.58 µM)	7 µg/mL (≈ 13.4 µM)	95%	–	–	–	–

Structure (SMILES)	IC50 ug/ml HCMV [1]	IC50 (ug/ml) HSV (HSV-1)	IC50 (ug/ml) VZV (VZV strain Ellen)	% inhibition 10 ug/ml VZV (VZV strain Ellen)	IC50 [1]	IC50 (HSV-1)	inhibition at 10 µg/mL (VZV strain Ellen)	IC50 (VZV strain Ellen)
Cc1ccc(NC(=S)Nc2ccc(NC(=O)c3ccccc3F)c(C)c2)cc1Cl [Example 395]	3 µg/mL (≈ 7.01 µM)	0.2 µg/mL (≈ 0.467 µM)	>10 µg/mL	64%	–	–	–	–
O=C(CN1CCOCC1)Nc1ccc(NC(=S)Nc2ccc(NC(=O)c3ccccc3F)cc2)cc1Cl [Example 367]	>10 µg/mL	>10 µg/mL	>10 µg/mL	20%	–	–	–	–
CCCCC(NC(=S)Nc1ccc(NC(=O)c2ccccc2F)cc1)c1ccc(F)cc1 (stereo not drawn) [Example 773]	1.2 µg/mL (≈ 2.65 µM)	>10 µg/mL	>7.5 µg/mL	–	–	–	–	–
O=C(Nc1ccc(NC(=S)NCCc2ccc(F)cc2)cc1)c1ccccc1F [Example 552]	>0.5 µg/mL	>10 µg/mL	>10 µg/mL	–	–	–	–	–
N#Cc1cccc(NC(=S)Nc2ccc(NC(=O)c3ccccc3F)cc2)c1 [Example 461]	>10 µg/mL	>10 µg/mL	>10 µg/mL	33%	–	–	–	–
CC(NC(=S)Nc1ccc(NC(=O)c2ccc(C(F)(F)F)cc2)cc1)c1ccc(F)cc1 (stereo not drawn) [Example 1021, N-(4-{3-[1-(4-Fluorophenyl)-ethyl]-thioureido}-phenyl)-4-trifluoromethyl-benzamide]	–	–	–	–	> 10 µg/mL	> 10 µg/mL	–	0.4 µg/mL (≈ 0.867 µM)
O=C(Nc1ccc(NC(=S)NCc2cccc(Cl)c2)cc1)c1ccccc1F [Example 511]	>10 µg/mL	>10 µg/mL	>10 µg/mL	10%	–	–	–	–
COc1cc(OC)c(NC(=S)Nc2ccc(NC(=O)c3ccccc3F)cc2)cc1Cl [Example 118]	3 µg/mL (≈ 6.52 µM)	0.15 µg/mL (≈ 0.326 µM)	>10 µg/mL	–	–	–	–	–
CC(NC(=S)Nc1ccc(NC(=O)c2ccccc2F)cc1)c1ccc(S(=O)(=O)N2CCCCC2)cc1 (stereo not drawn) [Example 1009]	>10 µg/mL	>10 µg/mL	>10 µg/mL	–	–	–	–	–
O=C(Nc1ccc(NC(=S)Nc2cccc(O)c2)cc1)c1ccccc1F [Example 475]	>10 µg/mL	5 µg/mL (≈ 13.1 µM)	>10 µg/mL	28%	–	–	–	–
Cc1ccccc1C(=O)Nc1ccc(NC(=S)Nc2ccc(N(C)C3CCN(Cc4ccccc4)C3)c(Cl)c2)cc1 (stereo not drawn) [Example 374]	3 µg/mL (≈ 5.14 µM)	3 µg/mL (≈ 5.14 µM)	4 µg/mL (≈ 6.85 µM)	70%	–	–	–	–
COc1cc(OC)c(NC(=S)Nc2ccc(NC(=O)c3ccccc3F)c(Cl)c2)cc1Cl [Example 278]	>10 µg/mL	>10 µg/mL	>10 µg/mL	15%	–	–	–	–
O=C(Nc1ccc(NC(=S)Nc2ccccc2)cc1)c1ccccc1F [Example 859, 2-Fluoro-N-[4-(3-phenyl-thioureido)-phenyl]-benzamide]	–	–	–	–	> 10 µg/mL	> 10 µg/mL	20%	> 10 µg/mL
COc1cc(OC)c(NC(=S)Nc2ccc(NC(=O)c3c(F)cccc3F)cc2)cc1Cl [Example 140]	4 µg/mL (≈ 8.37 µM)	0.15 µg/mL (≈ 0.314 µM)	10 µg/mL (≈ 20.9 µM)	65%	–	–	–	–
CN(C)c1cc(Cl)cc(NC(=S)Nc2ccc(NC(=O)c3ccccc3F)cc2)c1 [Example 523]	3.2 µg/mL (≈ 7.22 µM)	0.6 µg/mL (≈ 1.35 µM)	4 µg/mL (≈ 9.03 µM)	75%	–	–	–	–
COc1cccc(C(=O)Nc2ccc(NC(=S)Nc3ccc(N(C)C4CCCCC4)c(Cl)c3)cc2)c1 [Example 250]	>10 µg/mL	>10 µg/mL	>10 µg/mL	42%	–	–	–	–
Cc1ccccc1C(=O)Nc1ccc(NC(=S)Nc2ccc(N(C)C)c(Cl)c2)cc1 [Example 346]	2 µg/mL (≈ 4.56 µM)	6 µg/mL (≈ 13.7 µM)	>10 µg/mL	62%	–	–	–	–
Nc1c(Cl)cc(NC(=S)Nc2ccc(NC(=O)c3ccccc3F)cc2)cc1Cl [Example 518]	4 µg/mL (≈ 8.9 µM)	0.25 µg/mL (≈ 0.556 µM)	>10 µg/mL	32%	–	–	–	–
CC(NC(=S)Nc1ccc(NC(=O)c2ccccc2F)cc1)c1cccc(Br)c1 (stereo not drawn) [Example 780]	1 µg/mL (≈ 2.12 µM)	>10 µg/mL	1.2 µg/mL (≈ 2.54 µM)	–	–	–	–	–

Reference: patent US6462055B2, “Alpha-methylbenzyl-containing thiourea inhibitors of herpes viruses containing a phenylenediamine group” (Wyeth, priority 1998, dated 2002)
